pEC50: −log10 of the molar value.
Target: T1, HEK cells stably transfected with tetracycline inducible hNR1 and hNR2A (Homo sapiens, UniProt Q05586+Q12879)
T1 construct: expressed in transfected cells; host or cells: HEK cells, stably transfected, tetracycline/doxycycline inducible
Assay: Assay 1: Cell-Based Assay, cytosolic calcium response to positive allosteric modulators (with 30 μM glycine and 300 nM L-glutamate, EC30)
Conditions: for pEC50: cytosolic calcium response, with 30 μM glycine and 300 nM L-glutamate (EC30), — = no plateau was reached; for Max %: responses scaled relative to 100 μM L-glutamate maximal response (100%) and 0 μM L-glutamate (0%)
Procedure: Assay 1: Cell-Based Assay
HEK cells stably transfected with tetracycline inducible hNR1 and hNR2A were seeded into clear bottom 384 well poly-D-lysine coated plates (2.5×10^4 cells per well) in Minimum Essential Media (MEM; without L-) including 7.5 μg mL^−1 doxycycline and 500 μM (+)-ketamine. The cells were incubated at 37° C. in 5% CO2 for 24 h. For measurement of changes in cytosolic calcium, the seeding media was removed and the cells incubated at 37° C. for 60 min with 1× Becton Dickinson Calcium Assay Kit reagent in Hanks Balanced Salt Solution (HBSS; w/o magnesium, including 1.8 mM calcium, 0.65 mg ml^−1 probenecid and 10 μM (+)-ketamine, pH 7.15) then allowed to equilibrate to rt for 30 min. Concentration-effect curves to Positive Allosteric Modulators (PAMs) were constructed by adding different concentrations (with 30 μM glycine and 300 nM L-glutamate (EC30)) to different wells in HBSS. Compounds were added after a 10 second baseline read and maximum level of relative fluorescence units (RFU) was measured over a 5 min period. Responses were scaled relative to 100 μM L-glutamate maximal response (100%) and 0 μM L-glutamate (0%). EC50 values are provided for compounds reaching maximal response plateaus, and the max % (EC50 (- -)) only if no plateau was reached.
A four-parameter Hill equation was fitted to individual concentration-effect curves:
[formula] in which Y, S0, Sinf, AC50, n and c were effect, lower-asymptote, upper-asymptote, mid-point location, slope parameter, and concentration respectively.

T1 sequence (Q12879 23-1464, other chains not shown): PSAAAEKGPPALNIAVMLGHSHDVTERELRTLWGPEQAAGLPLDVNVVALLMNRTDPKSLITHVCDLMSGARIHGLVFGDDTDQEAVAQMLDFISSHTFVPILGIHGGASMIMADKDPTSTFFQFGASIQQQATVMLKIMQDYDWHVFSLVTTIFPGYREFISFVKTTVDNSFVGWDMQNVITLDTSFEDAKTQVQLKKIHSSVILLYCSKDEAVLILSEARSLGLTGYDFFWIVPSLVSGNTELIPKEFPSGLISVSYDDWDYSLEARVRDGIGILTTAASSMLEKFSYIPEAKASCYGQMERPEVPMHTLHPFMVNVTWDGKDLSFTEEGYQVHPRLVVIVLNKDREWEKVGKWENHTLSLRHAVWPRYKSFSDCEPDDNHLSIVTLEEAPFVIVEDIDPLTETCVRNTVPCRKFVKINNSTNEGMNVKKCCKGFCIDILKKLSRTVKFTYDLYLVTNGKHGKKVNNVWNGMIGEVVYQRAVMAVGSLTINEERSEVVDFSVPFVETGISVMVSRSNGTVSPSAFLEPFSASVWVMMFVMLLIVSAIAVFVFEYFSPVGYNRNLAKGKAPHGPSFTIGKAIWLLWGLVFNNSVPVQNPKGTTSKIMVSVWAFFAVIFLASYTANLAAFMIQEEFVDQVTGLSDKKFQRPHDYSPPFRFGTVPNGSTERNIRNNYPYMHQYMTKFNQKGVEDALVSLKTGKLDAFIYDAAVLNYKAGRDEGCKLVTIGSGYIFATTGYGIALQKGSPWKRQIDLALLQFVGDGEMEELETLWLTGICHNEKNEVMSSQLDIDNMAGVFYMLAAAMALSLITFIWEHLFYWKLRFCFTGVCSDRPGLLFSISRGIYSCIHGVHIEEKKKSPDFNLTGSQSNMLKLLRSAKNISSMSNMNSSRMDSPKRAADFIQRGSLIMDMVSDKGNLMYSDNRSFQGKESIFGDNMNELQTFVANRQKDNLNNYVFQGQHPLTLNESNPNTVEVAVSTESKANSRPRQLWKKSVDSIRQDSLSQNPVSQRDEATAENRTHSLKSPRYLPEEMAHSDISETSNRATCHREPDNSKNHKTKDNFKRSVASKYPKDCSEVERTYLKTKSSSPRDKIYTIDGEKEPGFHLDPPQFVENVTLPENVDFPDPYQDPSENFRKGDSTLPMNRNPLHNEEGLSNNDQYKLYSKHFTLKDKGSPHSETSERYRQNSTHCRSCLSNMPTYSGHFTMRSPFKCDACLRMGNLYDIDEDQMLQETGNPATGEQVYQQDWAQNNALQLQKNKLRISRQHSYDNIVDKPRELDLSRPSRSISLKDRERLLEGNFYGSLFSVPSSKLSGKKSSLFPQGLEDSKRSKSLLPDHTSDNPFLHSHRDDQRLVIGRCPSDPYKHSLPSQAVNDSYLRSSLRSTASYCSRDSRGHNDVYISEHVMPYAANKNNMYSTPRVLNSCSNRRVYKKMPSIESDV

Cc1sc2nc(COc3ccc(F)cc3)cc(=O)n2c1[C@@H]1C[C@H]1C(F)(F)F (relative stereo) [Example 4.24, trans-7-(4-Fluorophenoxymethyl)-2-methyl-3-[2-(trifluoromethyl)cyclopropyl]-5H-[1,3]thiazolo[3,2-a]pyrimidin-5-one]
pEC50 (Table 2): 5.68
Max % (Table 2): 80%

CCN(Cc1cc(=O)n2c(I)c(C)sc2n1)c1ccc(F)cc1 [Example 11.4, 7-[(N-ethyl-4-fluoro-anilino)methyl]-3-iodo-2-methyl-thiazolo[3,2-a]pyrimidin-5-one]
Max % (Table 2): 103%

CNC(=O)Cc1c(C)sc2nc(Cn3nc(C(F)(F)F)cc3C3CC3)cc(=O)n12 [compound 18, 2-[7-[[5-cyclopropyl-3-(trifluoromethyl)pyrazol-1-yl]methyl]-2-methyl-5-oxo-thiazolo[3,2-a]pyrimidin-3-yl]-N-methyl-acetamide]
pEC50 (Table 3): 5.65

Cc1cc(C(F)(F)F)n(Cc2cc(=O)n3c(C(=O)NCC(F)(F)F)c(C)sc3n2)n1 [compound 67, 2-methyl-7-[[3-methyl-5-(trifluoromethyl)pyrazol-1-yl]methyl]-5-oxo-N-(2,2,2-trifluoroethyl)thiazolo[3,2-a]pyrimidine-3-carboxamide]
pEC50 (Table 3): 4.44

Cc1sc2nc(Cc3cccc(C#N)c3F)cc(=O)n2c1C1CC1C(F)(F)F (centres unmarked) [compound 38, 2-fluoro-3-[[2-methyl-5-oxo-3-[2-(trifluoromethyl)cyclopropyl]thiazolo[3,2-a]pyrimidin-7-yl]methyl]benzonitrile]
pEC50 (Table 3): 6.27

Cc1sc2nc(Cc3cc(C#N)ccc3C3CC3)cc(=O)n2c1[C@@H]1C[C@H]1CO (relative stereo) [Example 20.13, 4-cyclopropyl-3-((3-(trans-2-(hydroxymethyl)cyclopropyl)-2-methyl-5-oxo-5H-thiazolo[3,2-a]pyrimidin-7-yl)methyl)benzonitrile]
pEC50 (Table 2): 5.24
Max % (Table 2): 146%

CNC(=O)c1c(C)sc2nc(Cc3ccc(Cl)cc3Cl)cc(=O)n12 [Example 21.57, 7-[(2,4-dichlorophenyl)methyl]-N,2-dimethyl-5-oxo-thiazolo[3,2-a]pyrimidine-3-carboxamide]
Max % (Table 2): 64.1%

CCN(Cc1cc(=O)n2c(C#N)c(C)sc2n1)c1cccc(F)c1 [Example 7.2, 7-((ethyl(3-fluorophenyl)amino)methyl)-2-methyl-5-oxo-5H-thiazolo[3,2-a]pyrimidine-3-carbonitrile]
pEC50 (Table 2): 6.21
Max % (Table 2): 134%

Cc1sc2nc(Cn3nc(C(F)(F)F)cc3Br)cc(=O)n2c1C1CC1C#N (single isomer, unassigned) [compound 275]
pEC50 (Table 3): 7.13

CCN(Cc1cc(=O)n2c(-c3cncnc3)c(C)sc2n1)c1cccc(F)c1 [Example 5.5, 7-((ethyl(3-fluorophenyl)amino)methyl)-2-methyl-3-(pyrimidin-5-yl)-5H-thiazolo[3,2-a]pyrimidin-5-one]
pEC50 (Table 2): 5.62
Max % (Table 2): 168%

CCNC(=O)c1c(C)sc2nc(Oc3cccc(C(F)(F)F)c3F)cc(=O)n12 [compound 48, N-ethyl-7-[2-fluoro-3-(trifluoromethyl)phenoxy]-2-methyl-5-oxo-thiazolo[3,2-a]pyrimidine-3-carboxamide]
pEC50 (Table 3): 5.12

Cc1sc2nc(Cc3cccc(C#N)c3)c(F)c(=O)n2c1C1CC1CO (centres unmarked) [Example 20.2, 3-((6-fluoro-3-(2-(hydroxymethyl)cyclopropyl)-2-methyl-5-oxo-5H-thiazolo[3,2-a]pyrimidin-7-yl)methyl)benzonitrile]
pEC50 (Table 2): 5.13
Max % (Table 2): 145%

CCN(Cc1cc(=O)n2c(CCCO)c(C)sc2n1)c1ccc(F)cc1 [Example 13.1, 7-[(N-ethyl-4-fluoro-anilino)methyl]-3-(3-hydroxypropyl)-2-methyl-thiazolo[3,2-a]pyrimidin-5-one]
pEC50 (Table 2): 6.36
Max % (Table 2): 161%

COc1sc2nc(Cn3nc(C(F)(F)F)cc3Cl)cc(=O)n2c1Cl [compound 217, 3-chloro-7-[[5-chloro-3-(trifluoromethyl)pyrazol-1-yl]methyl]-2-methoxy-thiazolo[3,2-a]pyrimidin-5-one]
pEC50 (Table 3): 5.32
